Numbered stars: 1 amine (or outer) side, 2 acyl side, 3 side chain; on linkers, the order of the positions; unused ones are H or OH. Bridge positions count the residues as written; N and C are the ends. Square brackets hold non-standard residues; d marks the D form. Peptide text beside a SMILES is read from it. I, II: the chains in the order shown. X1 = O=C(COc1cccc2c1C1c3c(OCC(=O)NCCCCCCCCN[*:2])cccc3C2c2cccc(OCC(=O)NCCCCCCCCN[*:3])c21)NCCCCCCCCN[*:1]; Cha = N[C@@H](CC1CCCCC1)C(=O)O
How the values were obtained:
[1] = tested on: Jurkat cells; assay: cells; conditions: 1 h
Procedure: (§1) HeLa S3 cells (human cervical carcinoma) were cultured in Minimum essential medium (MEM) containing 10% FBS, penicillin, and streptomycin. A549 cells (human lung carcinoma) and IMR90 cells (human fetal lung fibroblast) were cultured in Dulbecco’s modified Eagle’s medium (DMEM) with 10% FBS, penicillin, and streptomycin. All cells were cultured at 37 °C under a humidified atmosphere containing 5% CO2.
(§2) Jurkat, HeLa-S3, A549 cells (2.0 × 10^5 cells/mL) and IMR90 cells (1.0 × 10^5 cells/mL) were incubated in the presence of 3–7 for 1 h, and etoposide, cisplatin and celastrol for 24 h (50 μL) in cell culture medium under CO2 at 37 °C in 96-well plates (BD Falcon). MTT reagent (5 mg/mL) in PBS (10 μL) was then added to the cells. After incubation at 37 °C for 4 h, a formazan lysis solution (10% sodium dodecyl sulfate (SDS) in 0.01 N HCl) (100 μL) was added and the resultant solution was incubated overnight under the same conditions, which was followed by measurement of the absorbance at 570 nm using a microplate reader (ARVO, PerkinElmer).

[2] = tested on: IMR90 cells; assay: cells; conditions: 1 h
Procedure: as §1, §2

[3] = tested on: HeLa-S3 cells; assay: cells; conditions: 1 h
Procedure: as §1, §2

[4] = tested on: A549 cells; assay: cells; conditions: 1 h
Procedure: as §1, §2

[5] = tested on: Jurkat cells; assay: MTT assay of Jurkat cells treated with 4 or celastrol in the presence of inhibitors; format: cell-based; conditions: DIDS 75 or 100 μM, RuRed 75 μM; for Inhibition of 4-induced cell death in Jurkat cells: 4 2.5 μM 1 h, Z-VAD-fmk 15 μM, necrostatin-1 30 μM, 3-MA 10 μM, CCCP 40 μM, 2-APB 50 or 100 μM; for Inhibition of celastrol-induced cell death in Jurkat cells: celastrol 5 μM 24 h, 2-APB 50 μM
Procedure: (a) Jurkat cells: Jurkat cells (2.0 × 10^5 cells/mL) in RPMI 1640 medium with 10% FBS were pretreated with the inhibitors (Z-VAD-fmk (final concentration = 15 μM), necrostatin-1 (final concentration = 30 μM), 3-MA (final concentration = 10 μM), and DIDS (75 or 100 μM)) for 3 h or pretreated with other inhibitors (CCCP (40 μM), FCCP (40 μM), 2-APB (50 or 100 μM) and RuRed (75 μM)) for 1 h under 5% CO2 at 37 °C. After incubation, 4 (final concentration = 2.5 μM) was added to the cell suspension, which was then incubated for 1 h at 37 °C. To test the effect of celastrol, the cells were pretreated with the aforementioned inhibitors and then incubated with celastrol (5 μM) for 24 h. MTT reagent (5 mg/mL) in PBS (10 μL) was added to the cells. After incubation at 37 °C for 4 h, a formazan lysis solution (10% sodium dodecyl sulfate (SDS) in 0.01 N HCl) (100 μL) was added, and the resultant solution was incubated overnight under the same conditions, followed by measurement of the absorbance at 570 nm using a microplate reader (ARVO, PerkinElmer).

Row | Compound | EC50 [1] | EC50 [2] | EC50 [3] | EC50 [4] | Inhibition of 4-induced cell death in Jurkat cells [5] | Inhibition of celastrol-induced cell death in Jurkat cells [5]
1 | NCCCC[C@H](NC(=O)[C@H](CC1CCCCC1)NC(=O)[C@H](CCCCN)NC(=O)[C@H](CC1CCCCC1)NC(=O)[C@@H](N)CCCCN)C(=O)NCC(=O)NCCCCCCCCNC(=O)COc1cccc2c1C1c3c(OCC(=O)NCCCCCCCCNC(=O)CNC(=O)[C@H](CCCCN)NC(=O)[C@H](CC4CCCCC4)NC(=O)[C@H](CCCCN)NC(=O)[C@H](CC4CCCCC4)NC(=O)[C@@H](N)CCCCN)cccc3C2c2cccc(OCC(=O)NCCCCCCCCNC(=O)CNC(=O)[C@H](CCCCN)NC(=O)[C@H](CC3CCCCC3)NC(=O)[C@H](CCCCN)NC(=O)[C@H](CC3CCCCC3)NC(=O)[C@@H](N)CCCCN)c21 [compound 6] (I: H-K[Cha]K[Cha]KG / II: H-K[Cha]K[Cha]KG / III: H-K[Cha]K[Cha]KG; linker I:C-II:C-III:C via X1) | 1200 ± 100 nM | > 25 µM | 3.3 ± 0.2 µM | – | – | –
2 | NCCCC[C@H](NC(=O)[C@H](CCCCN)NC(=O)[C@@H](N)CCCCN)C(=O)NCC(=O)NCC(=O)NCCCCCCCCNC(=O)COc1cccc2c1C1c3c(OCC(=O)NCCCCCCCCNC(=O)CNC(=O)CNC(=O)[C@H](CCCCN)NC(=O)[C@H](CCCCN)NC(=O)[C@@H](N)CCCCN)cccc3C2c2cccc(OCC(=O)NCCCCCCCCNC(=O)CNC(=O)CNC(=O)[C@H](CCCCN)NC(=O)[C@H](CCCCN)NC(=O)[C@@H](N)CCCCN)c21 [compound 3] | 2200 ± 500 nM | > 25 µM | 5.3 ± 0.5 µM | 8.6 ± 1.8 µM | – | –
3 | NCCCC[C@H](NC(=O)[C@H](CCCCN)NC(=O)[C@@H](N)CCCCN)C(=O)N[C@@H](CC1CCCCC1)C(=O)NCC(=O)O [KKKChaG, H2N-KKKChaG] (H-KKK[Cha]G-OH; C-terminus assumed) | > 25000 nM | > 25 µM | > 25 µM | > 25 µM | – | –
4 | N.N.N.N.N.N.N.N.N.N.N.N.N.N.[Cl-].[Cl-].[Cl-].[Cl-].[Cl-].[Cl-].[O-2].[O-2].[Ru+3].[Ru+3].[Ru+4] [RuRed, Ruthenium Red] | – | – | – | – | rather weak | did not significantly stop cell death
5 | NCCOB(c1ccccc1)c1ccccc1 [2-APB] | – | – | – | – | rather weak | did not significantly stop cell death
6 | N=C(N)NCCC[C@H](NC(=O)[C@H](CC1CCCCC1)NC(=O)[C@H](CCCNC(=N)N)NC(=O)[C@H](CC1CCCCC1)NC(=O)[C@@H](N)CCCNC(=N)N)C(=O)NCC(=O)NCCCCCCCCNC(=O)COc1cccc2c1C1c3c(OCC(=O)NCCCCCCCCNC(=O)CNC(=O)[C@H](CCCNC(=N)N)NC(=O)[C@H](CC4CCCCC4)NC(=O)[C@H](CCCNC(=N)N)NC(=O)[C@H](CC4CCCCC4)NC(=O)[C@@H](N)CCCNC(=N)N)cccc3C2c2cccc(OCC(=O)NCCCCCCCCNC(=O)CNC(=O)[C@H](CCCNC(=N)N)NC(=O)[C@H](CC3CCCCC3)NC(=O)[C@H](CCCNC(=N)N)NC(=O)[C@H](CC3CCCCC3)NC(=O)[C@@H](N)CCCNC(=N)N)c21 [compound 7] (I: H-R[Cha]R[Cha]RG / II: H-R[Cha]R[Cha]RG / III: H-R[Cha]R[Cha]RG; linker I:C-II:C-III:C via X1) | 2100 ± 100 nM | > 12.5 µM | 2.7 ± 0.5 µM | 1.5 ± 0.1 µM | – | –
